Where two headings read alike, the source gives them in different places.
How the values were obtained:
[1] = cited from earlier work
[2] = dog, in vivo
[3] = Blood uptake of β-carotene in dogs after a single oral dose (plasma, HPLC); settings: dog
[4] = tested on: CD8 cells; test: Lymphocyte populations (CD8 cells); assay type: in vivo, female Beagles (dogs); settings: dog, 20 mg daily, weeks 2 and 4
Protocol: (§1) The following parameters were assessed in all the animals or in the peripheral blood lymphocytes: (1) delayed-type hypersensitivity (DTH) against PHA (nonspecific immunity) and vaccine (specific immunity), (2) lymphocyte proliferation, (3) lymphocyte populations and (4) immunoglobulins (Ig).

[5] = in vivo; parameters: species or system female short hair Tabby cats; settings: po
Protocol: (§2) Mature female short hair Tabby cats (7 to 8 months of age; 1.5 to 2.0 kg body weight) were used for Examples 4-6and were fed a basal diet (The lams Co., Lewisburg, Ohio.) which met or exceeded the requirement for all essential nutrients. Animals were group-housed indoors in light- and temperature-controlled rooms.
To study the uptake of oral β-carotene in cats given a single dose of β-carotene orally, cats (n=6/treatment) were given once perorally 0, 10, 20 or 50 mg of β-carotene (10% cold water dissolvable; BASF Corp., Ludwigshafen, Germany). The appropriate dose of β-carotene was dissolved in 0.6 ml of water and fed orally by using a feeding syringe. […] These cats were fed once with 50 mg β-carotene and blood sampled at 0 (immediately prior to β-carotene feeding), 3, 6, 10, 16, 24, 30 and 36 hr.
The results from this example are illustrated in FIG. 14 and show peak concentrations of β-carotene generally occurring between 10 and 16 hr post-dosing. Subsequently, blood was sampled from the remaining cats at 0, 12, 24, 30, 36, 42, 48 and 72 hr after dosing. Plasma was similarly separated and analyzed.

[6] = tested on: DTH response to vaccine; test: Delayed-type hypersensitivity (DTH) against vaccine (specific immunity); assay type: in vivo, female Beagles (dogs); settings: dog, 20 or 50 mg β-carotene daily, 7 weeks
Protocol: as §1

[7] = assay type: in vivo, female Beagles (dogs); settings: dog, daily supplementation
Protocol: (§3) Female Beagles (4 to 5 mo old) were supplemented daily with 0, 25, 50 or 100 mg of β-carotene to study the role of dietary β-carotene in enhancing the cell-mediated and humoral immune systems of the dog. The following parameters were assessed in all the animals or in the peripheral blood lymphocytes: (1) delayed-type hypersensitivity (DTH) against PHA (nonspecific immunity) and vaccine (specific immunity), (2) lymphocyte proliferation, (3) lymphocyte populations and (4) immunoglobulins (Ig).

[8] = tested on: lymphocyte blastogenesis; test: Mitogen-induced lymphocyte blastogenesis (lymphocyte proliferation); assay type: in vivo, female Beagles (dogs); settings: dog, β-carotene feeding
Protocol: as §3

[9] = in vivo; parameters: species or system female short hair Tabby cats
Protocol: as §2
In this Example, the cats (n=6/treatment) were dosed daily at 0800 hr for 6 consecutive days with 0, 1, 2, 5 or 10 mg β-carotene. Blood was sampled once daily on day 0 (immediately prior to the first dose) and subsequently at 12 hr after each dosing (days 1 through 6). This blood sampling time was chosen based on the results obtained in Example 5. Plasma was isolated and analyzed for concentrations of β-carotene.

[10] = tested on: immunoglobulins (IgG, IgM, total IgG); test: Plasma immunoglobulins (Ig); assay type: in vivo, female Beagles (dogs); settings: dog
Protocol: as §1

[11] = tested on: blood neutrophils; parameters: species or system female Beagle dogs; settings: dog, in vivo
Protocol: (§4) Female Beagle dogs (18 to 19 months of age; 7 to 9 kg body weight) were used in Examples 1-3 and were fed a basal diet (The lams Co., Lewisburg, Ohio.) which met or exceeded the requirement for all essential nutrients. Animals were housed indoors in light--(14 hr light; 10 hr dark) and temperature-controlled rooms.
(§5) All procedures were conducted under dim light. Duplicate aliquots of plasma, each leukocyte homogenate, and each leukocyte subcellular fraction were extracted with a 1:1 mixture of diethyl ether and petroleum ether in the presence of BHT. The ether phase was removed and dried under a stream of nitrogen.
(§6) This example was designed to study the uptake of β-carotene in dogs by blood lymphocytes. The dogs (n=8/treatment) were fed 0, 50 or 100 mg of β-carotene daily for 30 days. Blood was sampled from all dogs via the jugular vein on days 10, 20 and 30. Blood lymphocytes and neutrophils were separated by density gradient centrifugation. Cell numbers were enumerated. Lymphocytes and neutrophils were resuspended in PBS containing 3% sodium ascorbate as an antioxidant. An aliquot of the cell suspension was sonicated for 30 seconds to disrupt the cells. The leukocyte homogenates were extracted for HPLC analysis of β-carotene.

[12] = tested on: blood lymphocytes; parameters: species or system female Beagle dogs; settings: dog, in vivo
Protocol: as §4, §5, §6

[13] = tested on: IL-2; test: IL-2 production; assay type: in vivo, female Beagles (dogs); settings: dog, β-carotene feeding
[14] = tested on: DTH response to PHA; test: Delayed-type hypersensitivity (DTH) against PHA (nonspecific immunity); assay type: in vivo, female Beagles (dogs); settings: dog, 50 mg β-carotene daily, 7 weeks
Protocol: as §3

[15] = pigs and rodents; cited from earlier work
[16] = tested on: peripheral blood lymphocytes; parameters: species or system female short hair Tabby cats; settings: in vivo
Protocol: as §2
(§7) This example studied the uptake of β-carotene by blood lymphocytes in cats. The cats (n=8/treatment) were fed 0, 5 or 10 mg of β-carotene daily for 14 days. Blood was sampled on days 7 and 14 with the aid of a blood collection vacutainer set (Becton Dickenson, Franklin Lakes, N.J.) in sedated animals (10 mg ketamine and 0.1 mg of acepromazine/kg body weight). Blood lymphocytes and neutrophils were separated by density gradient centrifugation. Cell numbers were enumerated. Lymphocytes were resuspended in PBS containing 3% sodium ascorbate as an antioxidant. An aliquot of the cell suspension was sonicated for 30 seconds to disrupt the cells. The lymphocyte homogenate was extracted for the HPLC analysis of β-carotene. Adequate numbers of neutrophils could not be obtained; therefore, no data are available in quantitating the uptake of β-carotene by circulating neutrophils.

[17] = tested on: CD4+ cells; test: Lymphocyte populations (CD4+ cells); assay type: in vivo, female Beagles (dogs); settings: dog, 20 or 50 mg daily, wk 8
Protocol: as §1

[18] = tested on: subcellular lymphocyte fractions; parameters: species or system female short hair Tabby cats; settings: in vivo
Protocol: as §2, §7
A larger aliquot was used to prepare subcellular lymphocyte fractions. Lymphocytes were disrupted by sonication for 20 seconds in 5 volumes of 0.25 M sucrose. Sodium ascorbate was added as the antioxidant. The homogenate was centrifuged (600×g for 10 min at 4° C.) and the crude nuclear pellet separated from the supernatant. The postnuclear supernatant obtained earlier was centrifuged (7,300×g for 20 min at 4° C.) to separate the mitochondrial fraction. The postmitochondrial supernatant was centrifuged (102,000×g for 60 min at 4° C.) to separate the microsomal from the cytosolic fraction. Each subcellular fraction was analyzed for β-carotene content by HPLC.

[19] = in vivo; settings: dog, po
[20] = tested on: subcellular fractions of blood lymphocytes; parameters: species or system female Beagle dogs; settings: dog, in vivo
Protocol: as §5, §6
(§8) On day 30, a larger aliquot of blood was taken and leukocyte suspensions prepared as described above for subsequent subcellular fractionation. Cells were disrupted by sonication for 20 seconds in 5 volumes of 0.25 M sucrose. Sodium ascorbate was added as the antioxidant. The homogenate was centrifuged (600×g for 10 min at 4° C.) and the nuclear pellet separated from the supernatant. The postnuclear supernatant was centrifuged (17,300×g for 20 min at 4° C.) to separate the mitochondrial fraction. The postmitochondrial supernatant was centrifuged (102,000×g for 60 min at 4° C.) to separate the microsomal from the cytosolic fraction. Each subcellular fraction was analyzed for β-carotene content by HPLC.

[21] = tested on: subcellular fractions of blood neutrophils; parameters: species or system female Beagle dogs; settings: dog, in vivo
Protocol: as §5, §6, §8

[22] = parameters: species or system female Beagle dogs; settings: dog, in vivo
Protocol: as §4, §5
In this Example, the dogs (n=6/treatment) were fed daily at 0800 hr for 7 consecutive days with 0, 12.5, 25, 50 or 100 mg β-carotene. The β-carotene was top-dressed on the food and fed in the morning meal. Blood was sampled once daily on day 0 (immediately prior to the first dose) and subsequently at 6 hr after each dosing (days 1 through 7). […] Plasma was isolated and analyzed for concentrations of β-carotene.

carotene
carotene in the blood, liver and milk of dogs ([1]; dog, in vivo): trace amounts, if any

CC1=C(/C=C/C(C)=C/C=C/C(C)=C/C=C/C=C(C)/C=C/C=C(C)/C=C/C2=C(C)CCCC2(C)C)C(C)(C)CCC1 [β-carotene]
plasma β-carotene of dogs lower than that observed in cats [2]: 10-16 fold
time of peak blood β-carotene, dogs compared with cats [2]: occurred earlier in dogs than in cats
half-life of plasma β-carotene ([2]; po): ~4 h
Tmax [3]: 6 h
population of CD8 cells [4]: elevated population
half-life of plasma β-carotene ([5]; cat): about 24 hr
half-life ([5]; cat, half-life of plasma β-carotene): 12 to 18 h
Tmax ([5]; cat, time of peak concentrations of plasma β-carotene): 12 h
Tmax ([5]; cat, time of peak concentrations of β-carotene (post-dosing)): 10 to 16 h
plasma β-carotene concentration, 50 mg vs other doses [5]: highest (P<0.01)
DTH response to vaccine [6]: significantly higher DTH response
effect on plasma retinol [7]: did not influence
effect on plasma α-tocopherol [7]: did not influence
mitogen-induced lymphocyte blastogenesis [8]: did not influence
increase in daily changes in plasma β-carotene, 10 mg vs other doses [9]: steepest increase
plasma β-carotene after the last dose relative to after one dose [9]: 1.5-2 fold
concentration at 12 h ([9]; cat, po): 192 ± 58 ng/mL
dose dependence of Ig increases ([10]; 0 to 20 mg): dose dependent
antibody response for both Ig at 20 mg ([10]; 20 mg daily): greatest antibody response
Ig response at the highest level (50 mg) ([10]; 50 mg daily): did not produce a further increase
concentrations of IgG, IgM and total IgG ([10]; as early as 1 wk after dietary supplementation): increased significantly
neutrophil β-carotene concentrations on day 30 [11]: no further increase
treatment difference in β-carotene concentrations in lymphocytes, 50 versus 100 mg [12]: no significant treatment difference
β-carotene in lymphocytes of dogs lower than that observed in cats [12]: 20-30 fold
β-carotene in peripheral blood lymphocytes on day 0 [12]: undetectable
IL-2 production [13]: did not influence
β-carotene in the liver and milk of dogs ([1]; earlier studies): only trace amounts
β-carotene in the circulating blood and organs of dogs ([1]; some studies): low to undetectable amounts
DTH response to PHA [14]: greatest response
concentrations of β-carotene [15]: very low concentrations
accumulation of β-carotene in lymphocytes, 10 mg vs 5 mg [16]: did not have higher accumulation
day of maximal uptake of dietary β-carotene by lymphocytes [16]: ≤ 7 days
uptake of β-carotene by blood lymphocytes on day 14 [16]: no additional increases
β-carotene in peripheral blood lymphocytes on day 0 [16]: undetectable
population of CD4+ cells compared to controls [17]: elevated population
accumulation of β-carotene in all fractions, day 14 vs day 7 [18]: no additional accumulation
concentrations of β-carotene in lymphocyte fractions, 10 mg vs 5 mg [18]: did not have higher concentrations
influence of dose or length of supplementation on relative β-carotene profiles in lymphocyte fractions [18]: generally were not influenced
relative proportion of β-carotene in the microsomes of lymphocytes [18]: 20-35%
β-carotene uptake in the nuclei compared to unsupplemented controls [18]: significant
Tmax [19]: 3 to 6 h
half-life ([19]; half-life of plasma β-carotene): ~3 h
share of total lymphocyte β-carotene in the cytosol [20]: 52-62%
share of total lymphocyte β-carotene in the microsomes [20]: 16-23%
share of total lymphocyte β-carotene in the mitochondria [20]: 14-17%
share of total lymphocyte β-carotene in the nuclei [20]: 6-8%
β-carotene in lymphocyte subcellular fractions of dogs compared with cats [20]: substantially lower
dose effect on β-carotene uptake by neutrophil subcellular fractions [21]: No significant dose effect
β-carotene in nuclei of blood neutrophils [21]: not detected
increase in daily concentrations of plasma β-carotene, 100 mg vs other doses [22]: steepest increase
plasma β-carotene after the last dose relative to after the first dose [22]: 2.5-4 fold

Reference: patent US6133323A, “Process for enhancing immune response in animals using β-carotene as a dietary supplement” (priority 1998, dated 2000)
